Measurements as given in patent US9751874B2, “Hydroxy containing FXR (NR1H4) modulating compounds” (Gilead Sciences, Inc., priority 2014, dated 2017).

How the values were obtained:
[1] = target: T1, human FXR alpha ligand binding domain (Homo sapiens, UniProt Q96RI1); assay: FRET activity assay (ligand mediated cofactor peptide interaction, LANCE); type: biochemical; conditions: GST-FXR-LBD / biotinylated SRC-1 peptide (676-700), read-out: F EC50
T1 construct: made in house; host or cells: E. coli BL21(DE3), vector pDEST15
T1 sequence (Q96RI1 187-472 isoform Q96RI1-2): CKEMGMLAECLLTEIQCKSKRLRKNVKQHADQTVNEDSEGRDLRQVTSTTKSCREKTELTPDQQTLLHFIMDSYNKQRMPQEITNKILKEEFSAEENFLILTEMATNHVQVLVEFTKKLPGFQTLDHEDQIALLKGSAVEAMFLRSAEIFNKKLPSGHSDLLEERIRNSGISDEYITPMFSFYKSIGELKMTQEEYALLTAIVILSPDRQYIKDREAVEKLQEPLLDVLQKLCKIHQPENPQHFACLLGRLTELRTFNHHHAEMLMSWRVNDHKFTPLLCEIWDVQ
Procedure: Determination of a ligand mediated cofactor peptide interaction to quantify ligand binding to the nuclear receptor FXR was performed as follows: Preparation of human FXR alpha ligand binding domain: The human FXRalpha LBD was expressed in E. coli strain BL21(DE3) as an N-terminally GST tagged fusion protein. The DNA encoding the FXR ligand binding domain was cloned into vector pDEST15 (Invitrogen). Expression was under control of an IPTG inducible T7 promoter. The amino acid boundaries of the ligand binding domain were amino acids 187-472 of Database entry NM_005123 (RefSeq). Expression and purification of the FXR-LBD: An overnight preculture of a transformed E. coli strain was diluted 1:20 in LB-Ampicillin medium and grown at 30° C. to an optical density of OD600=0.4-0.6. Gene expression was then induced by addition of 0.5 mM IPTG. Cells were incubated an additional 6 h at 30° C., 180 rpm. Cells were collected by centrifugation (7000×g, 7 min, rt). Per liter of original cell culture, cells were resuspended in 10 mL lysis buffer (50 mM Glucose, 50 mM Tris pH 7.9, 1 mM EDTA and 4 mg/mL lysozyme) and left on ice for 30 min. Cells were then subjected to sonication and cell debris removed via centrifugation (22000×g, 30 min, 4° C.). Per 10 mL of supernatant 0.5 mL prewashed Glutathione 4B sepharose slurry (Qiagen) was added and the suspension kept slowly rotating for 1 h at 4° C. Glutathione 4B sepharose beads were pelleted by centrifugation (2000×g, 15 sec, 4° C.) and washed twice in wash buffer (25 mM Tris, 50 mM KCl, 4 mM MgCl2 and 1M NaCl). The pellet was resuspended in 3 mL elution buffer per liter of original culture (elution buffer: 20 mM Tris, 60 mM KCl, 5 mM MgCl2 and 80 mM glutathione added immediately prior to use as powder). The suspension was left rotating for 15 min at 4° C., the beads pelleted and eluted again with half the volume of elution buffer than the first time. The eluates were pooled and dialysed overnight in 20 mM Hepes buffer (pH 7.5) containing 60 mM KCl, 5 mM MgCl2 as well as 1 mM dithiothreitol and 10% (v/v) glycerol. The protein was analysed by SDS-Page.
The method measures the ability of putative ligands to modulate the interaction between the purified bacterial expressed FXR ligand binding domain (LBD) and a synthetic biotinylated peptide based on residues 676-700 of SRC-1 (LCD2, 676-700). The sequence of the peptide used was B—[…]—COOH where the N-terminus was biotinylated (B). The ligand binding domain (LBD) of FXR was expressed as fusion protein with GST in BL-21 cells using the vector pDEST15. Cells were lysed by sonication, and the fusion proteins purified over glutathione sepharose (Pharmacia) according to the manufacturers instructions. For screening of compounds for their influence on the FXR-peptide interaction, the Perkin Elmer LANCE technology was applied. This method relies on the binding dependent energy transfer from a donor to an acceptor fluorophor attached to the binding partner of interest. For ease of handling and reduction of background from compound fluorescence LANCE technology makes use of generic fluorophore labels and time resolved detection Assays were done in a final volume of 25 μL in a 384 well plate, in a Tris-based buffer (20 mM Tris-HCl pH 7.5; 60 mM KCl, 5 mM MgCl2; 35 ng/μL BSA), containing 20-60 ng/well recombinantly expressed FXR-LBD fused to GST, 200-600 nM N-terminally biotinylated peptide, representing SRC1 aminoacids 676-700, 200 ng/well Streptavidin-xIAPC conjugate (Prozyme) and 6-10 ng/well Eu W1024-antiGST (Perkin Elmer). DMSO content of the samples was kept at 1%. After generation of the assay mix and diluting the potentially FXR modulating ligands, the assay was equilibrated for 1 h in the dark at rt in FIA-plates black 384 well (Greiner). The LANCE signal was detected by a Perkin Elmer VICTOR2VTM Multilabel Counter. The results were visualized by plotting the ratio between the emitted light at 665 and 615 nm. […]

[2] = target: T2, FXR ligand binding domain (Homo sapiens, UniProt Q96RI1); assay: Mammalian One Hybrid (M1H) assay, Gal4 promoter driven transactivation in HEK293 cells; type: cell-based; conditions: Gal4-FXR-LBD luciferase reporter, 16 h
T2 construct: expressed in transfected cells; host or cells: HEK293 cells, transiently transfected with pCMV-BD-FXR-LBD, pFR-Luc and pRL-CMV
T2 sequence (Q96RI1 187-472 isoform Q96RI1-2): T1 sequence (Q96RI1 187-472 isoform Q96RI1-2)
Procedure: Mammalian One Hybrid (M1H) Assay
Determination of a ligand mediated Gal4 promoter driven transactivation to quantify ligand binding mediated activation of FXR was performed as follows: The cDNA part encoding the FXR ligand binding domain was cloned into vector pCMV-BD (Stratagene) as a fusion to the yeast GAL4 DNA binding domain under the control of the CMV promoter. The amino acid boundaries of the ligand binding domain were amino acids 187-472 of Database entry NM_005123 (RefSeq). The plasmid pFR-Luc (Stratagene) was used as the reporter plasmid, containing a synthetic promoter with five tandem repeats of the yeast GAL4 binding sites, driving the expression of the Photinus pyralis (American firefly) luciferase gene as the reporter gene. In order to improve experimental accuracy the plasmid pRL-CMV (Promega) was cotransfected. pRL-CMV contains the constitutive CMV promoter, controlling the expression of the Renilla reniformis luciferase. All Gal4 reporter gene assays were done in HEK293 cells (obtained from DSMZ, Braunschweig, Germany) grown in MEM with L-Glutamine and Earle's BSS supplemented with 10% fetal bovine serum, 0.1 mM nonessential amino acids, 1 mM sodium pyruvate, and 100 units Penicilin/[…] per mL at 37° C. in 5% CO2. Medium and supplements were obtained from Invitrogen. For the assay, […] cells were plated per well in 96 well plates in 100 μL per well MEM without Phenol Red and L-Glutamine and with Earle's BSS supplemented with 10% charcoal/dextran treated FBS (HyClone, South Logan, Utah), 0.1 mM nonessential amino acids, 2 mM glutamine, 1 mM sodium pyruvate, and 100 units Penicilin/[…] per mL, incubated at 37° C. in 5% CO2. The following day the cells were >90% confluence. Medium was removed and cells were transiently transfected using 20 μL per well of a OptiMEM—polyethylene-imine-based transfection-reagent (OptiMEM, Invitrogen; Polyethyleneimine, Aldrich Cat No. 40,827-7) including the three plasmids described above. MEM with the same composition as used for plating cells was added 2-4 h after addition of transfection mixture. Then compound stocks, prediluted in MEM were added (final vehicle concentration not exceeding 0.1%). Cells were incubated for additional 16 h before firefly and renilla luciferase activities were measured sequentially in the same cell extract using a Dual-Light-Luciferase-Assay system (Dyer et al., Anal. Biochem. 2000, 282, 158-161). All experiments were done in triplicates.

Structure (SMILES)	EC50 [1]	EC50 [2]
O[C@@]1(c2cnc3nn[nH]c3c2)[C@@H]2CC[C@H]1C[C@H](OCc1c(-c3c(Cl)cccc3Cl)noc1C1CC1)C2 [Example 34, (1R,3s,5S,8r)-8-(1H-[1,2,3]Triazolo[4,5-b]pyridin-6-yl)-3-((5-cyclopropyl-3-(2,6-dichlorophenyl)isoxazol-4-yl)methoxy)bicyclo[3.2.1]octan-8-ol]	4.1 nM	5.3 nM
O=C(NCCN1CCOCC1)c1cc(F)c2nc([C@]3(O)CC[C@@H](OCc4c(-c5c(Cl)cncc5Cl)noc4C4CC4)CC3)sc2c1 [Example 17, 2-((1s,4s)-4-((5-Cyclopropyl-3-(3,5-dichloropyridin-4-yl)isoxazol-4-yl)methoxy)-1-hydroxycyclohexyl)-4-fluoro-N-(2-morpholinoethyl)benzo[d]thiazole-6-carboxamide]	150 nM	670 nM
O=C(O)Cc1nc([C@]2(O)[C@@H]3CC[C@H]2C[C@H](OCc2c(-c4c(Cl)cccc4Cl)noc2C2CC2)C3)oc1C(F)(F)F [Example 45, 2-(2-((1R,3s,5S,8r)-3-((5-Cyclopropyl-3-(2,6-dichlorophenyl)isoxazol-4-yl)methoxy)-8-hydroxybicyclo[3.2.1]octan-8-yl)-5-(trifluoromethyl)oxazol-4-yl)acetic acid]	6 nM	7.9 nM
O=C(O)c1ccc2nc(C3(O)CC4(CC(OCc5c(-c6c(Cl)cccc6Cl)noc5C5CC5)C4)C3)sc2c1 (single isomer, unassigned) [Example 11-4a, 2-(6-((5-Cyclopropyl-3-(2,6-dichlorophenyl)isoxazol-4-yl)methoxy)-2-hydroxyspiro[3.3]heptan-2-yl)benzo[d]thiazole-6-carboxylic acid]	56 nM	300 nM

More lines, now with the values ahead:

EC50 [1]	EC50 [2]	Structure (SMILES)
49 nM	140 nM	OC1(c2nc3ccccc3s2)C2CC3CC1CC(OCc1c(-c4c(Cl)cccc4Cl)noc1C1CC1)(C3)C2 [Example 24a, (1R,2r,3S,5s,7s)-2-(Benzo[d]thiazol-2-yl)-5-((5-cyclopropyl-3-(2,6-dichlorophenyl)isoxazol-4-yl)methoxy)adamantan-2-ol]
28 nM	93 nM	O=C(O)c1cc(F)c2nc([C@]3(O)CC4CC3CC4OCc3c(-c4c(Cl)cccc4Cl)noc3C3CC3)sc2c1 (stereo partly drawn) [Example 11-49, 2-((1R,2S,4R)-5-((5-Cyclopropyl-3-(2,6-dichlorophenyl)isoxazol-4-yl)methoxy)-2-hydroxybicyclo[2.2.1]heptan-2-yl)-4-fluorobenzo[d]thiazole-6-carboxylic acid]
3.7 nM	1.6 nM	O=C(O)c1ccc2nc([C@]3(O)[C@@H]4CC[C@H]3C[C@H](OCc3c(-c5c(Cl)cccc5Cl)noc3C3CC3)C4)sc2c1 [Example 11-22, 2-((1R,3s,5S,8r)-3-((5-cyclopropyl-3-(2,6-dichlorophenyl)isoxazol-4-yl)methoxy)-8-hydroxybicyclo[3.2.1]octan-8-yl)benzo[d]thiazole-6-carboxylic acid]
570 nM	2500 nM	O=C(O)c1cc2sc([C@]3(O)CC[C@@H](OCc4c(-c5ccccc5OC(F)F)noc4C4CC4)CC3)nc2cc1F [Example 11-19, 2-((1s,4s)-4-((5-Cyclopropyl-3-(2-(difluoromethoxy)phenyl)isoxazol-4-yl)methoxy)-1-hydroxycyclohexyl)-5-fluorobenzo[d]thiazole-6-carboxylic acid]
31 nM	58 nM	N#Cc1ccc2nc([C@]3(O)[C@@H]4CC[C@H]3C[C@H](OCc3c(-c5c(Cl)cccc5Cl)noc3C3CC3)C4)sc2c1 [Example 8-5, 2-((1R,3s,5S,8r)-3-((5-Cyclopropyl-3-(2,6-dichlorophenyl)isoxazol-4-yl)methoxy)-8-hydroxybicyclo[3.2.1]octan-8-yl)benzo[d]thiazole-6-carbonitrile]
220 nM	320 nM	OCc1ccc([C@]2(O)CC[C@@H](OCc3c(-c4c(Cl)cccc4Cl)noc3C3CC3)CC2)c(F)c1 [Example 9-6, (1s,4s)-4-((5-Cyclopropyl-3-(2,6-dichlorophenyl)isoxazol-4-yl)methoxy)-1-(2-fluoro-4-(hydroxymethyl)phenyl)cyclohexanol]
2200 nM	> 3000 nM	O=C(O)c1ccc2nc([C@]3(O)CC[C@@H](OCc4c(C5CCC(F)(F)CC5)noc4C4CC4)CC3)sc2c1 [Example 11-1, 2-((1s,4s)-4-((5-Cyclopropyl-3-(4,4-difluorocyclohexyl)isoxazol-4-yl)methoxy)-1-hydroxycyclohexyl)benzo[d]thiazole-6-carboxylic acid]
40 nM	51 nM	O=C(O)c1ccnc([C@]2(O)CC[C@@H](OCc3c(-c4c(Cl)cccc4Cl)noc3C3CC3)CC2)c1 [Example 11-6, 2-((1s,4s)-4-((5-Cyclopropyl-3-(2,6-dichlorophenyl)isoxazol-4-yl)methoxy)-1-hydroxycyclohexyl)isonicotinic acid]
